Measured values: article PMC8234143, “Synthesis and Antiviral Evaluation of Nucleoside Analogues Bearing One Pyrimidine Moiety and Two D-Ribofuranosyl Residues” (Molecules, 2021)
Like-named read-outs stand apart in the source and are kept apart here.

What was measured:
in vitro [1] = conditions: dog
in vitro [2] = conditions: African green monkey, CC50, Vero cells, MTT; concentration causing 50% cell death
WI-38 = assay: Cytotoxicity assay (Cytell Cell Imaging, DAPI/propidium iodide); assay type: cell-based; conditions: cytotoxic activity, normal human lung fibroblasts, read-out: IC50 Normal Cell Line WI-38
Coxsackie B3 virus = assay: Antiviral (cytoprotection, MTT) assay against Coxsackie B3 virus in Vero cells; assay type: cell-based, coxsackievirus B3; conditions: for SI: CC50/IC50 ratio, Coxsackie B3 / Vero; for IC50: 48 h, 50% inhibition of virus replication, Vero cells
M-HeLa = assay: Cytotoxicity assay (Cytell Cell Imaging, DAPI/propidium iodide); assay type: cell-based; conditions: cytotoxic activity, human cervix epitheloid carcinoma, read-out: IC50 Cancer Cell Lines M-HeLa
[3] = system: A/Puerto Rico/8/34 (H1N1) influenza virus; assay: Antiviral (cytoprotection, MTT) assay against influenza virus in MDCK cells; assay type: cell-based; conditions: for SI: CC50/IC50 ratio, influenza H1N1 / MDCK; for IC50: Influenza A virus, H1N1, MDCK, 48 h
PC-3 = assay: Cytotoxicity assay (Cytell Cell Imaging, DAPI/propidium iodide); assay type: cell-based; conditions: cytotoxic activity, human prostate adenocarcinoma, read-out: IC50 Cancer Cell Lines PC-3
HuTu-80 = assay: as above; assay type: cell-based; conditions: Homo sapiens, HuTu80; cytotoxic activity, duodenal adenocarcinoma; read-out: IC50 Cancer Cell Lines HuTu-80
Vero cells = conditions: for CC50: Vero cells, MTT, concentration causing 50% cell death
[4] = 50% inhibition of virus replication, MDCK cells, read-out: IC50

Row | Compound | CC50 (in vitro [1]) [µM] | CC50 (in vitro [2]) [µM] | IC50 (WI-38) [µM] | SI (Coxsackie B3 virus) | IC50 (Coxsackie B3 virus; Enterovirus B, B3, Vero) [µM] | IC50 (M-HeLa) [µM] | SI [3] | IC50 [3, 4] [µM] | IC50 (PC-3) [µM] | IC50 (HuTu-80) [µM] | cytotoxicity against the Vero cell line (in words) (Vero cells) | IC50 (Coxsackie B3 virus) [µM] | IC50 [3] [µM] | antiviral activity against influenza virus A H1N1 (in words) ([3]; MDCK cells) | CC50 (Vero cells) [µM]
1 | Cc1cc(=O)n(CCCCc2cn(C3OC(CO)C(O)C3O)nn2)c(=O)n1CCCCc1cn(C2OC(CO)C(O)C2O)nn1 (stereo not shown) [Compound 2i] | > 471 | > 471 | > 100 | 1 | > 471 | 100 ± 8.5 | 8 | 57.5 ± 7.1 | > 100 | > 100 | not cytotoxic | – | – | – | –
2 | O=c1c2nc3ccccc3nc2n(CCCCc2cn(C3OC(CO)C(O)C3O)nn2)c(=O)n1CCCCc1cn(C2OC(CO)C(O)C2O)nn1 (stereo not shown) [Compound 5i] | > 414 | > 414 | > 100 | 1 | > 414 | 71 ± 6.1 | 17 | 24.3 ± 3.2 | > 100 | > 100 | not cytotoxic | – | – | – | –
3 | CC(=O)OCC1OC(n2cc(CCCCn3c(C)cc(=O)n(CCCCc4cn(C5OC(COC(C)=O)C(OC(C)=O)C5OC(C)=O)nn4)c3=O)nn2)C(OC(C)=O)C1OC(C)=O (stereo not shown) [Compound 2f] | > 338 | 18 | > 100 | 1 | 12.4 | 88.1 ± 7.4 | 4 | – | > 100 | > 100 | – | > 12.4 | 96.3 ± 12.4 | inactive | 17.7 ± 0.6
4 | CC(=O)OCC1OC(n2cc(CCCCn3c(=O)c4nc5ccccc5nc4n(CCCCc4cn(C5OC(COC(C)=O)C(OC(C)=O)C5OC(C)=O)nn4)c3=O)nn2)C(OC(C)=O)C1OC(C)=O (stereo not shown) [Compound 5f] | > 308 | 18 | > 100 | 2 | 11.3 | 71.4 ± 6.3 | 3 | 91.6 ± 10.8 | 66.8 ± 5.3 | > 100 | – | > 11.3 | – | inactive | 17.8 ± 1.1
5 | O=c1[nH]cc(F)c(=O)[nH]1 [5-Fluorouracil, reference compound] | – | – | 82.5 ± 6.6 | – | – | 62 ± 4.9 | – | – | 10.3 ± 0.8 | 65.2 ± 5.5 | – | – | – | – | –
